Where two headings read alike, the source gives them in different places. Marks after values point to notes of the source that are not given here.
Key:
[1] = Fluorescence spectra of quinoline chromophores in KMOPS; assay type: physicochemical; settings: pH 7.2, excitation 365 nm
Method: The fluorescence spectra of BHQ-OAc, NHQ-OAc, CyHQ-OAc, CHQ-OAc, DMAQ-OAc, DMAQ-Cl-OAc, and TQ-OAc (15 μM in KMOPS, λex=365 nm) are shown in FIG. 18.

[2] = Two-photon uncaging action cross-section (740 nm, Tsien's method, fluorescein reference); assay type: physicochemical; settings: for δu (two-photon uncaging action cross-section): KMOPS, pH 7.2, measured at 740 nm; for λa (calculated 2-photon absorbance cross-section): calculated from du = da × Qu
Method: BHQ-ATP (159) (100 μM in KMOPS, pH=7.2) was photolyzed with a Chameleon Ultra II laser at 740 nm in 25-μL aliquots. The irradiation time intervals of the pulsed laser were 0, 5, 10, 20, and 40 min. Three samples of each time interval were collected and analyzed by HPLC using the same method as in the one-photon photolysis. Using Tsien's method of determining two-photon uncaging action cross-section with a fluorescence reference solution, the two-photon uncaging action cross-section of BHQ-ATP (159) was measured to be 0.17 GM. The ATP yield was about 40%.
Measurements were carried out in microcuvettes (10×1×1 mm illuminated dimensions) with an effective filling volume of 20 μL (26.10F-Q-10, Starna, Atascadero, Calif.). The IR laser used was from a fs-pulsed and mode-locked Ti:sapphire laser (Mira 900 pumped by a Verdi, Coherent, Santa Clara, Calif. or a Chameleon Ultra II) focused on the center of the cuvette chamber with a 25-mm focal length lens optimized for IR lasers (06LXP003/076, Melles-Griot, Irvine, Calif.). The pulse width of the laser was 144 fs for Mira 900. The laser beam was attenuated by passing the beam through an electro-optical modulator or a ½-waveplate and polarizing beamsplitter cube so that the average power exiting the apparatus was 300-350 mW.
Successive aliquots (25 μL) of each caged compound in KMOPS were placed into the cuvette and irradiated for 0, 5, 10, 20, and 40 min. Each aliquot was analyzed by HPLC to determine the concentration of the remaining caged compound as described for determining the uncaging quantum efficiency for one photon photolysis. The progress curves were plotted, and fitted to a single exponential decay curve. The formation of ATP was monitored, plotted, and fitted to a single exponential rise to max curve. For compounds 1c, 2a, 2b, and 3 (τdark<50 h), a correction was made for background dark hydrolysis that occurred while the irradiated samples were waiting for HPLC analysis. The fraction of the decay from hydrolysis in the dark was calculated using the measured dark hydrolysis rate and the waiting time from the end of the experiment until the HPLC injection. This value was subtracted from the total decay (hydrolysis+photolysis) measured by HPLC.
The two-photon uncaging cross-section (δu) was determined using Tsien's method, (as described by Furuta et al., (1999) Proc. Natl. Acad. Sci. U.S.A. 96: 1193-1200 (incorporated herein by reference in its entirety), referencing to fluorescein, a compound with a known fluorescence quantum yield (Qf=0.9) and absorbance cross-section (δa=30 GM at 740 nm), using the following equation: […]
Np is the number of molecules photolyzed per unit time (molecules/s, determined by HPLC analysis of the reaction); φ is the collection efficiency of the detector (SED033 on an IL-1700, International Light, Newburyport, Mass.) used to measure the fluorescence of fluorescein emitted at a right angle to the beam and passed though a 535/45 nm bandpass filter; CF is the concentration of the fluorescein standard (mol/L); <F(t)> is the time averaged fluorescent photon flux (photons/s) of the fluorescein standard collected by the detector; and CS is the initial concentration of the caged compound (mol/L). The light-induced uncaging of —OAc from a variety of caging moieties is illustrated in FIG. 23.

[3] = Dark hydrolysis rate / stability in the dark; assay type: physicochemical; settings: KMOPS, pH 7.2, dark
Method: Substrates were dissolved in KMOPS and stored in the dark at room temperature. Samples for HPLC analysis were carried out periodically and injected as described for one-photon photolysis. Data were fit to single exponential decay curves from which the time constant, τ, was calculated.

[4] = UV absorption of quinoline chromophores in KMOPS buffer; assay type: physicochemical; settings: pH 7.2
Text: It has two absorptive bands beyond 300 nm, one at 320 nm and the other at 370 nm. The 370 nm absorption band arises from the phenolate form of the BHQ skeleton, and the 320 nm absorption band is from the phenol form. […] The λmax of BHQ-ATP (159) is 376 nm, and the extinction coefficient at this wavelength is 1300 M^−1cm^−1. […]

[5] = Quantum efficiency for one-photon photolysis (365 nm, HPLC); assay type: physicochemical; settings: KMOPS, pH 7.2; for Qu (one-photon uncaging quantum efficiency): measured at 365 nm; for Sensitivity Qu × e: one-photon excitation, 365 nm, in M^-1·cm^-1
Method: The quantum efficiency of BHQ-ATP (159) decay and ATP recovery were determined by photolyzing a KMOPS solution of BHQ-ATP (159) (100 μM) with light from a 365 nm lamp through a set of filters that narrowed the band of light to a tight 30 nm range around 365 nm. Aliquots (20 μL) were taken out from the photolysis cuvette after a time interval of 0, 10, 20, 40, 60, or 90 secs, and HPLC analyses of these samples with a reverse phase C18 column and 85% 25 mM KH2PO4 buffer (pH=6.2)/15% methanol solvent system were carried out. The BHQ-ATP (159) peak (retention time=4.2 min.) and ATP peak (retention time=2.8 min.) were recorded and analyzed.
KMOPS-buffered solutions (3 mL) of the substrates (100 μM) in quartz cuvettes (21-Q-10, Starna, Atascadero, Calif.) were irradiated with 365 nm UV light from a mercury lamp (Spectroline SB-100P; Spectronics, Westbury, N.Y.) with a light filter. The spectral output of the lamp after the glass filters (CSO-52 and CS7-60, Ace Glass, Vineland, N.J.) has a band between 350 nm and 380 nm. The duration of each irradiation period ranged from 5 sec to 60 sec. After each period of irradiation, a 20 μL aliquot of the solution was removed for analysis by HPLC, using an external standard method to determine concentrations.
The analytes were eluted isocratically (flow rate of 1 mL/min) with acetonitrile and water containing 0.1% TFA (Table 1). The only exception is that BHQ-caged ATP was eluted with methanol and 25 mM KH2PO4 buffer (pH=6.2). The progress curves were plotted and fit to a single exponenial decay curve. The uncaging quantum efficiency (Qu) of each chromophore was calculated using Qu=(Iσt90%)^−1, where I is the radiant power in einstein·cm^−2s^−1, σ is the decadic extinction coefficient (10^3×ε, molar extinction coefficient) in cm^−2·mol^−1, and t90% is the irradiation time in s for 90% conversion to product (as described by Adams et al. (J. Am. Chem. Soc. (1988) 110: 3212-3220) incorporated herein by reference in its entirety). The UV intensity of the lamp was measured by potassium ferrioxalate actinometry (as described by Hatchard & Parker (Proc. Roy. Soc. London, Ser. A (1956) 235: 518-536) incorporated herein by reference in its entirety) in the same setup. ATP was monitored for its formation during the process, plotted, and fitted to an exponential rise to max curve.

[6] = KMOPS, pH 7.2; 740 nm; value taken from Fedoryak & Dore, Org. Lett. 2002; cited from earlier work
[7] = KMOPS, pH 7.2; value taken from Fedoryak & Dore, Org. Lett. 2002; cited from earlier work
[8] = KMOPS, pH 7.2; value taken from Fedoryak & Dore, Org. Lett. 2002; cited from earlier work; remark: listed apart in the source
[9] = KMOPS, pH 7.2; 365 nm; value taken from Fedoryak & Dore, Org. Lett. 2002; cited from earlier work
[10] = literature value; cited from earlier work
renal Na,K-ATPase = target: T1, renal Na,K-ATPase (Homo sapiens, UniProt P05023); settings: incubated with renal Na,K-ATPase, Kaplan et al. 1978; cited from earlier work
T1 construct: host or cells: kidney (renal) enzyme, as reported by Kaplan et al. 1978

[11] = literature; cited from earlier work

λem [1]	δu (two-photon uncaging action cross-section) [2]	λa (calculated 2-photon absorbance cross-section) [2]	τdark (time constant for hydrolysis in the dark) [3]	ε (extinction coefficient at λmax) [4]	λmax [4]	Qu (one-photon uncaging quantum efficiency) [5]	Sensitivity Qu × e [5]	Compound	further results
496 nm	0.13 GM	2.8 GM	31 h	4600 M⁻¹ cm⁻¹	368 nm	0.046	211	CC(=O)OCc1ccc2ccc(N(C)C)cc2n1 [DMAQ-OAc (2a), (7-(Dimethylamino)quinolin-2-yl)methyl acetate]	
436 nm	0.32 GM	1.0 GM	500 h	7700 M⁻¹ cm⁻¹	364 nm	0.31	2387	CC(=O)OCc1ccc2ccc(O)c(C#N)c2n1 [CyHQ-OAc (1b), (8-Cyano-7-hydroxyquinolin-2-yl)methyl acetate]	
	0.00 GM		278 h	6500 M⁻¹ cm⁻¹	350 nm	0.00	0	CC(=O)OCc1ccc2ccc(O)c([N+](=O)[O-])c2n1 [NHQ-OAc (1a), 7-Hydroxy-8-nitroquinolin-2-yl methyl acetate]	
								CC(OP(=O)(O)OP(=O)(O)OP(=O)(O)OCC1OC(n2cnc3c(N)ncnc32)C(O)C1O)c1ccccc1[N+](=O)[O-] (stereo not drawn) [NPE-ATP, P^3-1-(2-nitrophenyl)ethyl ester of ATP]	ATP release rate [10]: 118 s⁻¹
								Nc1ncnc2c1ncn2C1OC(COP(=O)(O)OP(=O)(O)OP(=O)(O)OCc2ccccc2[N+](=O)[O-])C(O)C1O (stereo not drawn) [NB-ATP, 2-nitrobenzyl ester of ATP]	substrate or inhibitor of Na,K-ATPase before irradiation (renal Na,K-ATPase): neither a substrate nor inhibitor of this enzyme
								COc1cc(OC)cc(C(OP(=O)(O)OP(=O)(O)OP(=O)(O)OCC2OC(n3cnc4c(N)ncnc43)C(O)C2O)C(=O)c2ccccc2)c1 (stereo not drawn) [DMB-ATP, P^3-[1-(3,5-dimethoxyphenyl)-2-phenyl-2-oxo]ethyl ester of ATP]	ATP release rate [10]: > 10^5 sec^−1
								COc1cc(C(C)OP(=O)(O)OP(=O)(O)OP(=O)(O)OC[C@H]2O[C@@H](n3cnc4c(N)ncnc43)[C@H](O)[C@@H]2O)c([N+](=O)[O-])cc1OC (stereo partly drawn) [DMNPE-ATP]	λmax [11]: 350 nm
								CN(C)c1ccc2c(COP(=O)(O)OP(=O)(O)OP(=O)(O)OCC3OC(n4cnc5c(N)ncnc54)C(O)C3O)cc(=O)oc2c1 (stereo not drawn) [DMACM-caged ATP, [7-(dimethylamino)coumarin-4-yl]methyl ATP]	ATP release rate [10]: 1.6e+09 s⁻¹
493 nm	0.47 GM	5.2 GM	34 h	3300 M⁻¹ cm⁻¹	386 nm	0.090	234	CC(=O)OCc1cc(Cl)c2ccc(N(C)C)cc2n1 [DMAQ-Cl—OAc (2b), (4-Chloro-7-(dimethylamino)quinolin-2-yl)methyl acetate]	
492 nm	0.12 GM	1.2 GM	49 h	2800 M⁻¹ cm⁻¹	370 nm	0.10	280	CC(=O)OCc1ccc2ccc(O)c(Cl)c2n1 [CHQ-OAc (1c), (8-Chloro-7-hydroxyquinolin-2-yl)methyl acetate]	

Compound	λem [1]	δu (two-photon uncaging action cross-section) [2]	λa (calculated 2-photon absorbance cross-section) [2]	τdark (time constant for hydrolysis in the dark) [3]	ε (extinction coefficient at λmax) [4]	λmax [4]	Qu (one-photon uncaging quantum efficiency) [5]	Sensitivity Qu × e [5]	further results
CC(=O)OCc1ccc2ccc(O)c(Br)c2n1 [BHQ-OAc]	478 nm		2.0 GM					754	δu (two-photon uncaging action cross-section) [6]: 0.59^g GM; ε [7]: 2600^g M^−1 · cm^−1; λmax [7]: 369^g nm; τdark (time constant for hydrolysis in the dark) [8]: 71^g h; Qu (one-photon uncaging quantum efficiency) [9]: 0.29^g
